According to patent publication US6426329B1, “Immunosuppressant activity of insulin-like growth factor I (IGF-I)” (Fujisawa Pharmaceutical Co., Ltd., priority 1997, dated 2002):

Experiments:
[1] = system: Bile secretions; test: Choleretic action of FK506 and synergistic action of IGF-I (bile secretion in bile duct-cannulated anesthetized rats); type: in vivo, rat; settings: for effect on choleresis (in words): summary of Table 2 data, IGF-I in combination with FK506
Description: Using male SD rats (6 weeks old) under urethane anesthesia (1.2 g/5 ml/kg), a midline incision was made in the abdominal region. Ligation was performed at the lower part of the common bile duct and a polyethylene tube (PE10, Intramedics) was inserted from above and ligated in position. The bile was thus withdrawn extracorporeally and pooled. The rat was kept warm on a hot plate at 37° C. and the volume of the bile withdrawn-was measured at 30-min intervals. […] As to FK506, FK506 Inj. (1P mg/1 ml vial) was used. Rats in the control group received saline both intravenously and subcutaneously. The bile was collected up to 180min after medication. As the baseline secretions, the average of the values at 2 points of time immediately preceding drug administration was used.

[2] = system: IGF-I; test: IGF-I producing action of FK506 (liver and blood IGF-I by rat IGF-I RIA kit after 7 days oral dosing); type: in vivo; settings: male SD rats; for increase of blood concentration of IGF-I / increase of concentration of IGF-I in the liver: 0.5 hour after final dose
Description: Male SD rats aged 6 weeks were orally dosed with FK506 once daily for 7 consecutive days, and at 0.5 hour following the final dose, the liver and blood were isolated. The blood IGF-I concentration was measured by acid-ethanol extraction and subsequent assay with a rat IGF-I RIA kit (DSL). The hepatic IGF-I level was measured by acetic acid extraction and subsequent assay with the rat IGF-I RIA kit. Five rats per group were used.

[3] = system: Bile secretions; test: Anticholeretic action of CsA and antagonizing action of IGF-I (bile secretion in bile duct-cannulated anesthetized rats); type: in vivo, rat
Description: Using male SD rats (7 weeks old) under urethane anesthesia (1.2 g/5 ml/kg), a midline incision was made in the abdominal region. Ligation was performed at the lower part of the common bile duct and a polyethylene tube (PE10, Intramedics) was inserted from above and ligated in position. The bile was thus withdrawn extracorporeally and pooled. The rat was kept warm on a hot plate at 37° C. and the volume of the bile withdrawn was measured at 30-min intervals. […] (250 mg/5 ml vial) was diluted with saline. Rats in the control group received saline both intravenously and subcutaneously. The bile was collected up to 180 min after drug administration. As the baseline secretions, the average of the values at 2 points of time immediately preceding drug administration was used.

[4] = FK506 1 mg/kg orally once daily for 7 days
[5] = FK506 10 mg/kg orally once daily for 7 days
[6] = Before administration (baseline)
[7] = Before administration (baseline), Mean ± S.E.

C=CC[C@@H]1/C=C(\C)C[C@H](C)C[C@H](OC)[C@H]2O[C@@](O)(C(=O)C(=O)N3CCCC[C@H]3C(=O)O[C@H](/C(C)=C/[C@@H]3CC[C@@H](O)[C@H](OC)C3)[C@H](C)[C@@H](O)CC1=O)[C@H](C)C[C@@H]2OC [FK506, 17-allyl-1,14-dihydroxy-12-[2-(4-hydroxy-3-methoxycyclohexyl)-1-methylvinyl]-23,25-dimethoxy-13,19,21,27-tetramethyl-11,28-dioxa-4-azatricyclo[22.3.1.0^4,9] octacos-18-ene-2,3,10,16-tetraone]
effect on choleresis (in words) [1]: has a choleretic action | increase of blood concentration of IGF-I [2, 4]: 14% | increase of concentration of IGF-I in the liver [2, 4]: 28% | increase of blood concentration of IGF-I [2, 5]: 11% | increase of concentration of IGF-I in the liver [2, 5]: 26% | IGF-I producing activity (in words) ([2]; liver): express IGF-I producing activity in the liver

IGF-I: insulin-like growth factor I (IGF-I), dissolved in saline, given subcutaneously
Bile secretions, % of preadministration baseline ([1]; 0˜30 min after administration, 10 mg/kg i.v. immunosuppressant, IGF-I 10 mg/kg s.c.): (109) % | Bile secretions, % of preadministration baseline ([1]; 30˜60 min after administration, 10 mg/kg i.v. immunosuppressant, IGF-I 10 mg/kg s.c.): (117) % | Bile secretions, % of preadministration baseline ([1]; 60˜90 min after administration, 10 mg/kg i.v. immunosuppressant, IGF-I 10 mg/kg s.c.): (120) % | Bile secretions, % of preadministration baseline ([1]; 90˜120 min after administration, 10 mg/kg i.v. immunosuppressant, IGF-I 10 mg/kg s.c.): (120) % | Bile secretions, % of preadministration baseline ([1]; 120˜150 min after administration, 10 mg/kg i.v. immunosuppressant, IGF-I 10 mg/kg s.c.): (123) % | Bile secretions, % of preadministration baseline ([1]; 150˜180 min after administration, 10 mg/kg i.v. immunosuppressant, IGF-I 10 mg/kg s.c.): (114) % | Bile secretions, % of preadministration baseline [1, 6]: (100) % | Bile secretions [1, 7]: 0.35 ± 0.01 ml/30 min | effect on choleresis (in words) [1]: enhances choleresis | Bile secretions, % of preadministration baseline ([3]; 0˜30 min after administration, CsA 10 mg/kg i.v., IGF-I 10 mg/kg s.c.): (109) % | Bile secretions, % of preadministration baseline ([3]; 30˜60 min after administration, CsA 10 mg/kg i.v., IGF-I 10 mg/kg s.c.): (121) % | Bile secretions, % of preadministration baseline ([3]; 60˜90 min after administration, CsA 10 mg/kg i.v., IGF-I 10 mg/kg s.c.): (124) % | Bile secretions, % of preadministration baseline ([3]; 90˜120 min after administration, CsA 10 mg/kg i.v., IGF-I 10 mg/kg s.c.): (118) % | Bile secretions, % of preadministration baseline ([3]; 120˜150 min after administration, CsA 10 mg/kg i.v., IGF-I 10 mg/kg s.c.): (121) % | Bile secretions, % of preadministration baseline ([3]; 150˜180 min after administration, CsA 10 mg/kg i.v., IGF-I 10 mg/kg s.c.): (118) % | Bile secretions, % of preadministration baseline [3, 6]: (100) % | Bile secretions [3, 7]: 0.33 ± 0.03 ml/30 min | effect on choleresis (in words) ([3]; summary of Table 1 data, IGF-I in combination with CsA): enhances choleresis
